Reference: article PMC8421406, “C9orf72-derived arginine-rich poly-dipeptides impede phase modifiers” (Nature Communications, 2021)
Where no end group is shown, it is not given here. HA = HA epitope tag

What was measured:
[1] = system: MBP:FUS (full-length FUS droplets) / Kapβ2; assay: Turbidity assay of FUS droplet formation (OD 395 nm); format: biochemical; conditions: equimolar poly-dipeptide and Kapβ2 (8 μM)
[2] = system: FUS droplets (MBP:FUS/MBP:FUS:EGFP) / Kapβ2; assay: Fluorescence microscopy of FUS droplets; format: biochemical; conditions: 16 μM Kapβ2, 16 μM Kapβ2–M9M complex, 50 μM PR20, repeated three times
[3] = system: GFP:hnRNPA2-LC / mCh:hnRNPA2-LC hydrogel; assay: Hydrogel binding assay, hnRNPA2-LC; format: biochemical; conditions: 1.0 µM GFP:hnRNPA2-LC, Kapβ2 1.0 µM, PR20 1.0 µM
Source text: (§1) Expression plasmids for recombinant proteins (GFP/mCherry fusion LC-domain of FUS (residue 2–214, GFP/mCh:FUS-LC) and GFP/mCherry fusion LC-domain of hnRNPA2 (residue 181–341, GFP/mCh:hnRNPA2-LC)) were obtained from the Steven L. McKnight Laboratory. Expression plasmid for GFP:FUS-LC fusion NLS (residue 501–526, GFP:FUS-LC:NLS), mCh fusion LC-domain of TDP43 (residue 262–414, mCh:TDP43-LC), and GFP-tagged cNLS (residue 78–99) fusion TDP43-LC (GFP:cNLS:TDP43-LC) were constructed using In-Fusion HD Cloning Kit (Takara Bio, Inc.). GFP/mCh:FUS-LC, GFP:FUS-LC:NLS, and GFP/mCh:hnRNPA2-LC were expressed in E. coli BL21(DE3) cells with 0.5 mM IPTG at 20 °C overnight and purified by Ni-NTA Agarose (FUJIFILM Wako Pure Chemical Corporation), as described in a previous study. GFP:cNLS:TDP43-LC were expressed with 1.0 mM IPTG at 37 °C for 3 h and mCh:TDP43-LC were expressed with 0.5 mM IPTG at 16 °C overnight. GFP:cNLS:TDP43-LC and mCh:TDP43-LC were purified by Ni-NTA as described in a previous study[48] with some modifications. […] Relative intensity of GFP signals across the hydrogel droplets were measured in triplicate by using the profile plot mode in ImageJ. […]

[4] = system: GFP:cNLS:TDP43-LC / mCh:TDP43-LC hydrogel; assay: Hydrogel binding assay, TDP43-LC with Impα/β1; format: biochemical; conditions: 1.0 µM GFP:cNLS:TDP43-LC, Impα/β1 1.0 µM/1.0 µM, PR20 1.0 µM
Source text: as §1

[5] = system: Kapβ2 / MBP:FUS-NLS complex; assay: Competitive pull-down: release of MBP:FUS-NLS from GST:Kapβ2; format: binding; conditions: MBP:FUS-NLS (501–526) : GST:Kapβ2 1:1, PR20:HA competitor; repeated twice
Source text: Unbound proteins were washed three times with the buffer.

Substance: PR20: twenty repeats of proline:arginine with an HA epitope tag at the C terminus, synthesized by SCRUM, Inc. (PRPRPRPRPRPRPRPRPRPRPRPRPRPRPRPRPRPRPRPR-{HA})
- Inhibition of the ability of Kapβ2 to melt FUS droplets (turbidity) [1]: inhibited the ability of Kapβ2
- Effect on FUS droplets (microscopy) [2]: not melted in the presence of PR20
- Effect on ability of Kapβ2 to block hydrogel binding of hnRNPA2-LC [3]: inhibited the ability of Kapβ2
- Effect on ability of Impα/β1 to modify phase transition of TDP43-LC [4]: inhibited the ability of other NIRs Impα/β1 in modifying the phase transition of LC-domain of TDP43
- Release of MBP:FUS-NLS from Kapβ2 [5]: release of MBP:FUS-NLS from Kapβ2
